Holding throughout (type): biochemical
In one experiment the target is SARS-CoV-2 3CL^pro (Severe acute respiratory syndrome coronavirus 2, UniProt P0DTD1).
For the next experiment, the target named is human cathepsin B (Homo sapiens, UniProt P07858). Nature of the experiment: fluorogenic peptide cleavage assay.
A further experiment concerns the target human cathepsin L (Homo sapiens, UniProt P07711). Nature of the experiment: fluorogenic peptide cleavage assay.

Read-outs that look alike come from different tables or passages of the source.

As a reminder, the IC50 is the point on the concentration scale where inhibition reaches its midpoint. The low end stands for greater potency, the high end for weaker potency.

Sequence of human cathepsin L (P07711 114-333 limits assumed): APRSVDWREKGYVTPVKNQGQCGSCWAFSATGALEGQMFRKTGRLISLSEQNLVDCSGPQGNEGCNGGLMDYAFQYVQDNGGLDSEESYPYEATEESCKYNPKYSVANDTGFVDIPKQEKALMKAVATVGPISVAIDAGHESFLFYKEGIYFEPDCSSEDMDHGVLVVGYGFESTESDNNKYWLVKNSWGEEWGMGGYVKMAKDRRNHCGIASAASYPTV

The compound `COc1cccc2[nH]c(C(=O)N[C@@H](CC(C)C)C(=O)NN(C[C@H]3CCNC3=O)C(=O)[C@H](F)Cl)cc12` [10b, N-((S)-1-(2-((R)-2-Chloro-2-fluoroacetyl)-2-(((R)-2-oxopyrrolidin-3-yl)methyl)hydrazineyl)-4-methyl-1-oxopentan-2-yl)-4-methoxy-1H-indole-2-carboxamide] returned a half-inhibitory concentration (IC50) against SARS-CoV-2 3CL^pro of 15.6 nM.
On to “N-((S)-1-(2-Acetyl-2-(((S)-2-oxopyrrolidin-3-yl)methyl)hydrazineyl)-4-methyl-1-oxopentan-2-yl)-4-fluoro-1H-indole-2-carboxamide [compound 12]”, for which, at SARS-CoV-2 3CL^pro ([…], no CFA warhead, 30 min preincubation, pH 7.3, 1 mM DTT, ambient temperature), the concentration for half-maximal inhibition (IC50) is 178 nM.
In the case of `CC(C)C[C@H](NC(=O)c1cc2c(F)cccc2[nH]1)C(=O)NN(C[C@@H]1CCNC1=O)C(=O)[C@H](F)Cl` [8a, N-((S)-1-(2-((R)-2-Chloro-2-fluoroacetyl)-2-(((S)-2-oxopyrrolidin-3-yl)methyl)hydrazineyl)-4-methyl-1-oxopentan-2-yl)-4-fluoro-1H-indole-2-carboxamide], the IC50 at human cathepsin B and on human cathepsin L was greater than 10000 nM each time.
